Test [1] has as its system gastric adenocarcinoma AGS cells. As to the kind of experiment: MTT cell viability assay, AGS cells. It counts as cell-based, human. The settings on record: for IC50: Homo sapiens, MTT; for reduction in viability: 100 μM. Here is the method:
(§1) Viability of cells was determined using the MTT assay. Cells were plated in 96‐well plates at 1 × 10^4 cells per well and allowed to adhere for 24 h. […] MTT (3‐(4,5‐Dimethyl‐2‐thiazolyl)‐2,5‐diphenyl‐2H‐tetrazolium bromide, Sigma‐Aldrich, USA) solution was added to each well, and cells were incubated at 37°C for 4 h. The medium was then removed, and formazan crystals were dissolved in 100 μL of DMSO and 12.5 μL of Sorensen's glycine buffer on a plate shaker. Absorbance was measured at 570 nm using a microplate reader. IC50 values were calculated using GraphPad Prism software.
Background: Tetrazolium assays rely on reduction of a dye to a coloured formazan, in cell work by metabolically active cells.

Test [2] concerns AGS cells. As to the kind of experiment: [3H]-thymidine incorporation (DNA biosynthesis), AGS. The settings on record: 50 μM, 48 h. In kind it is cell-based, human. How it is done: (§2) Cells were plated in 24‐well plates at 4 × 10^4 cells per well and allowed to adhere for 24 h. Cells were treated with the various concentrations of flavonoids (25, 50 and 100 μM) in 1 mL medium containing 0.5 μCi [^3H]‐thymidine (#MT6037, Hartmann Analytic, Germany) for 48 h. Medium was discarded, and cells were rinsed three times with phosphate buffered saline (PBS), and solubilized with 1 mL of 0.1 M sodium hydroxide containing 1% sodium dodecyl sulphate. Then, 9 mL of scintillation liquid (PerkinElmer, USA) was added, and radioactivity incorporated into DNA was measured using a scintillation counter.
In general terms: Incorporation of labelled thymidine or its analogues reports DNA synthesis.

The subject of test [3] is DLD‐1 cells. As to the kind of experiment: [3H]-thymidine incorporation (DNA biosynthesis), DLD-1. In kind it is cell-based, human. The settings on record: DLD-1, 50 μM, 48 h. Here is the method:
as §2

For test [4], the system named is normal human skin fibroblasts (CCD25Sk). As to the kind of experiment: MTT cell viability assay, normal fibroblasts. In kind it is cell-based. The settings on record: Skin fibroblast. Here is the method: as §1
Test [5] deals with DLD‐1 cells. In words: Annexin V/propidium iodide apoptosis assay, DLD-1. It counts as cell-based, human. The settings on record: DLD-1, 50 μM, 48 h. Here is the method:
(§3) Cells were seeded at a density of 1 × 10^5 cells per well in 6-well plates and allowed to adhere for 24 h. Cells were treated with various concentrations of flavonoids (12.5, 25, 50 and 100 μM) for 48 h. Floating and adherent cells were collected and assayed using a Dead Cell Apoptosis Kit with annexin V-fluorescein isothiocyanate (FITC) and propidium iodide (PI), for flow cytometry (#V13242, Thermo Fisher Scientific, USA), according to the manufacturer’s protocol. Briefly, cells were dispersed in 100 μL annexin-binding buffer containing 5 μL annexin V-FITC conjugate solution, 1 μg/mL PI and 1 μg/mL Hoechst 33342, and incubated for 15 min at room temperature. Then 400 μL of annexin-binding buffer was added, and the cell suspension was transferred to 96-well plates and visualised using fluorescence microscopy on a BD Pathway 855 system (Becton Dickinson, USA). Early […]
(§4) red and blue fluorescence. […]

In the next test the test system is p53 in AGS cells. As to the kind of experiment: p53 expression by Western blot and fluorescence microscopy, AGS. It counts as cell-based, human. The settings on record: 48 h treatment. Here is the method: (§5) Cells were seeded at a density of 1 × 10^5 cells per well in 6-well plates and allowed to adhere for 24 h. Cells were treated with various concentrations of flavonoids (12.5, 25, 50 and 100 […]
(§6) Adherent and floating cells were harvested and sonicated. Obtained homogenates were supplemented with 1% protease and phosphatase inhibitor cocktail (#78440, Thermo Fisher Scientific, USA). A Lowry assay was performed to quantify protein content in the homogenates. Proteins (20–40 μg) were resolved on 7.5%, 10% or 12% SDS-PAGE gels using the Mini-Protean Tetra system (Bio-Rad, USA). Proteins were transferred to nitrocellulose membranes (Bio-Rad, USA) using the Mini Trans-Blot Cell wet blotting system (Bio-Rad, USA). Membranes were blocked with 5% skim milk for 1 hour at room temperature and probed overnight at 4 °C with primary antibodies. The following antibodies […]
(§7) 1:1000), purchased from Cell Signaling Technology (USA); anti-p53 antibody (#sc-126, […]
(§8) 1:500) obtained from Santa Cruz Biotechnology (USA); and anti-actin antibody (#A2066, 1:2000) purchased from Sigma-Aldrich (USA). After extensive washes, a secondary antibody solution in 5% skim milk (anti-mouse IgG-HRP, Sigma-Aldrich, #A9044, 1:5000; anti-rabbit IgG-HRP, Sigma-Aldrich, #A9169, 1:5000) was added for 1 h at room temperature.
(§9) Membranes were incubated with ECL-HRP substrate (GE Healthcare, USA) and the signal was detected using the BioSpectrum Imaging System (Ultra-Violet Products, Ltd., UK).
(§10) 2.8. Immunofluorescence microscopy
(§11) Cells were plated in 96-well plates at 1 × 10^4 cells per well and allowed to adhere for 24 h.
(§12) Cells were treated with the respective concentration of flavonoids and incubated for 48 h. […]
(§13) The mass spectrometric detector was calibrated by analyzing flavonoid solutions in the concentration range 0.06‒2.0 mg/ml in the mode of selective monitoring of the most intense ions (M+ ‒ CH3) in the spectra of TMS derivatives of the determined components (Table S1).
A general note: Immunoblotting shows a protein as a band on a membrane.

A further test relates to p53 in DLD‐1 cells. In words: p53 expression by Western blot and fluorescence microscopy, DLD-1. It counts as cell-based, human. The settings on record: DLD-1, 48 h treatment. How it is done: as §5, §6, §7, §8, §9, §10, §11, §12, §13
For test [6], the system named is HepG2 cells. As to the kind of experiment: [3H]-thymidine incorporation (DNA biosynthesis), HepG2. It counts as cell-based, human. The settings on record: HepG2, 50 μM, 48 h. How it is done:
as §2

In test [7] the test system is HepG2 cells. In words: Annexin V/propidium iodide apoptosis assay, HepG2. In kind it is cell-based, human. The settings on record: HepG2, 50 μM, 48 h. Here is the method: as §3, §4
The subject of another test is p53 in HepG2 cells. In words: p53 expression by Western blot and fluorescence microscopy, HepG2. It counts as cell-based, human. The settings on record: HepG2, 48 h treatment. How it is done: as §5, §6, §7, §8, §9, §10, §11, §12, §13
Test [8] deals with AGS cells. As to the kind of experiment: Colony formation assay, AGS. It counts as cell-based, human. The settings on record: 12.5 μM, 48 h treatment then 7 days culture. Here is the method: (§14) 2.5. Colony formation assay
(§15) In total, 250 cells were plated in each well of 12-well plates and allowed to adhere for 24 h.
(§16) Cells were treated with various concentrations of flavonoids (3.125, 6.25, 12.5, 25, 50 and 100 μM) for 48 h. Medium was discarded and fresh medium was added. After seven days, culture medium was removed and cells were washed once with PBS. Then, cells were fixed with 4% formaldehyde and stained with 0.1% crystal violet. […]

The subject of test [9] is AGS cells. In words: Annexin V/propidium iodide apoptosis assay, AGS. In kind it is cell-based, human. The settings on record: 50 μM, 48 h. Here is the method: as §3, §4
For test [10], the system named is colorectal adenocarcinoma DLD‐1 cells. As to the kind of experiment: MTT cell viability assay, DLD-1 cells. The settings on record: for IC50: Homo sapiens, MTT; for reduction in viability: DLD-1, 100 μM. In kind it is cell-based, human. How it is done: as §1
For test [11], the system named is DLD‐1 cells. As to the kind of experiment: Colony formation assay, DLD-1. It counts as cell-based, human. The settings on record: DLD-1, 12.5 μM, 48 h treatment then 7 days culture. Here is the method:
as §14, §15, §16

Test [12] deals with HepG2 cells. In words: Colony formation assay, HepG2. The settings on record: HepG2, 12.5 μM, 48 h treatment then 7 days culture. In kind it is cell-based, human. How it is done: as §14, §15, §16
Test [13] concerns hepatocellular carcinoma HepG2 cells. As to the kind of experiment: MTT cell viability assay, HepG2 cells. It counts as cell-based, human. The settings on record: for IC50: Homo sapiens, MTT; for reduction in viability: HepG2, 100 μM. How it is done: as §1

Where only a bound is given, the exact number is not on record here.

For the compound `O=c1c(O)c(-c2ccc(O)c(O)c2)oc2cc(O)cc(O)c12` [quercetin], half-maximal inhibition in [1] (72 h) (IC50) required 28.4 ± 2.5 µM.

As for `COc1cc2oc(-c3ccc(O)cc3)cc(=O)c2c(O)c1OC` [cirsimaritin], the “reduction of [3H]-thymidine incorporation” value in the test with AGS cells [2] worked out at 24.5%; in the test on DLD‐1 cells [3], 10.0%; in the test on HepG2 cells [6], 53.6%. Besides, the IC50 (in general, the concentration that inhibits the measured activity by half) is above 50 µM in test [4] (24 h); above 50 µM in test [4] (48 h); above 50 µM in test [4] (72 h); 31.7 ± 2.4 µM in [1] (48 h); 17.1 ± 1.4 µM in test [1] (72 h). The entries for the “percentage of cells in the early stage of apoptosis” value in the test on DLD‐1 cells [5], in the test with HepG2 cells [7] and with AGS cells [9] were 51.5%, 51.2% and 37.0%, respectively. Also, the “percentage of cells in the late stage of apoptosis” value with DLD‐1 cells [5] was determined as 15.5%; in the test with HepG2 cells [7], 5.4%; with AGS cells [9] it was 7.4%. Besides, the p53 level entry in the test on p53 in AGS cells is on record as “increased significantly”; in the test with p53 in DLD‐1 cells, “decreased”; in the test on p53 in HepG2 cells, “increased significantly”. In the test with AGS cells [8], the “decrease in number of colonies” value stood at 75.7%.

Consider `COc1ccc(-c2cc(=O)c3c(O)cc(OC)cc3o2)cc1` [apigenin−7,4'‐O‐dimethyl ether, apigenin 7,4'‐O‐dimethyl ether], for which the IC50 in test [4] (24 h) is 23.6 ± 2.2 µM; in test [4] (48 h), 12.9 ± 0.5 µM; in test [4] (72 h), 19.7 ± 1.3 µM.

Turning to `O=c1cc(-c2ccc(O)cc2)oc2cc(O)cc(O)c12` [apigenin, reference compound], the “reduction of [3H]-thymidine incorporation” value in the test on AGS cells [2] stood at 56.2%; with DLD‐1 cells [3], 17.7%; with HepG2 cells [6], 85.4%. Also, the 50% inhibitory concentration (IC50) is above 50 µM in test [4] (24 h); above 50 µM in test [4] (48 h); above 50 µM in test [4] (72 h); above 50 µM in test [10] (DLD-1, 24 h); 43.6 ± 2 µM in test [10] (DLD-1, 48 h); above 50 µM in [10] (DLD-1, 72 h). Besides, the IC50 was above 50 µM in [1] (24 h); 18.2 ± 1.3 µM in test [1] (48 h); 23.4 ± 1.4 µM in test [1] (72 h); above 50 µM in test [13] (HepG2, 24 h); above 50 µM in [13] (HepG2, 48 h); 37.9 ± 2.9 µM in test [13] (HepG2, 72 h). The “decrease in number of colonies” value in the test on DLD‐1 cells [11] is listed as 23.5%; with HepG2 cells [12], 61.8%; in the test on AGS cells [8] it was 13.2%. Moreover, the entries for the “percentage of cells in the early stage of apoptosis” value in the test with DLD‐1 cells [5], in the test on HepG2 cells [7] and with AGS cells [9] were 29.7%, 20.5% and 71.2%, respectively. Further, the “percentage of cells in the late stage of apoptosis” value is 9.4% in the test with DLD‐1 cells [5], 12.3% with HepG2 cells [7] and 9.6% with AGS cells [9]. The p53 level result in the test on p53 in AGS cells, in the test with p53 in DLD‐1 cells and in the test with p53 in HepG2 cells was “up‐regulated” throughout.

For `COc1cc(O)c2c(=O)c(OC)c(-c3ccc(O)cc3)oc2c1` [kumatakenin], in test [4] (72 h), half-maximal inhibition (IC50) required 41.6 ± 3.5 µM.

Take `COc1ccc(-c2oc3cc(O)cc(O)c3c(=O)c2OC)cc1` [ermanin]: the “reduction of [3H]-thymidine incorporation” value in the test on AGS cells [2] came out at 28.2%; with DLD‐1 cells [3], 29.1%; in the test with HepG2 cells [6] it was 85.2%. The reduction in viability result in [10] (48 h), in [10] (72 h), in test [1] (48 h), in test [1] (72 h), in test [13] (48 h) and in test [13] (72 h) was “over 80%” in each case. Also, the half-maximal inhibitory concentration (IC50) in test [10] (DLD-1, 48 h) stood at 49.3 ± 2.5 µM; in test [1] (48 h), 49.3 ± 3.3 µM; in [1] (72 h) it was 44.5 ± 3.1 µM.

Source of the values: publication PMC8650031, “Santin and cirsimaritin from Betula pubescens and Betula pendula buds induce apoptosis in human digestive system cancer cells” (Journal of Cellular and Molecular Medicine, 2021).
